Tests used:
[1] = system: mesenchymal stem cells (MSCs); experiment: AlDeLuc in mesenchymal stem cells, lysed and treated with luciferase; assay type: cell-based; settings: 20 μM, one hour, ~2.5×10^5 MSCs, lysed
Method: Testing commenced by incubating MSCs with AlDeLuc (20 μM). After one hour, the cells were lysed, treated with luciferase, and imaged. […] Moreover, we wanted to allow for any oxidized N,N-diethyl luciferin substrate to accumulate for the highest possible signal.

4T1-Luc tumors = experiment: Bioluminescence imaging of heterotopic breast cancer model with AlDeLuc; assay type: in vivo, BALB/c mice; settings: 0.55 mg/kg retro-orbital
Method: Generation of 4T1-Luc Breast Cancer Model. Female or male BALB/c mice (˜6 weeks old) were inoculated with 4T1-Luc cells (50 μL of 1×10^6 cells in 1:1 v/v serum-free RPMI 1640 media and Matrigel) via subcutaneous injections into each flank. Tumor volumes were measured using the caliper method every three days. Body weight was measured daily over the course of the experiment. After two weeks, the tumor was in the 200 to 400 mm^3 range.
Bioluminescence Imaging of a Heterotopic Breast Cancer Model with AlDeLuc. BALB/c mice bearing 4T1-Luc tumors were anesthetized using isoflurane (1-3% for maintenance; up to 5% for induction) in oxygen from a precision vaporizer. After testing to ensure animals are fully under anesthesia, each mouse was administered a control solution of 1:19 v/v DMSO:PBS via retro-orbital injection. After 40 minutes, the mice were imaged on the IVIS imaging system. Luminescence was collected using an open filter set. ROIs were drawn around both the left and right tumors, and the intensity was calculated using the Living Image Analysis software.
The following day the mice were anesthetized, and administered AlDeLuc (0.55 mg/kg, 1:19 v/v DMSO:PBS). […] Luminescence was collected using an open filter set. ROIs were drawn around both the left and right tumors, and the intensity was calculated using the Living Image Analysis software.

ALDH1A1 activity = experiment: High-fat diet inflammatory model, orthotopic 4T1-Luc tumors, AlDeLuc imaging after L-NMMA; assay type: in vivo, BALB/c mice; settings: control group (water gavage), AlDeLuc 0.55 mg/kg, 40 min
Method: Finally, to examine how NO influences ALDH1A1 activity in vivo we placed BALB/c mice (female, 5-7 weeks old) on a high-fat diet for 40 weeks to induce an inflammatory response through elevated NO production. This period consists of a ˜20-week priming period prior to inoculation of the animals with 4T1-Luc cells at the mammary fat pad. At this point, the mice were randomized into two groups. The treatment group was administered L-NMMA (50 mg/kg), whereas the control group received water via oral gavage for 20 days. The day after the final treatment, mice from both conditions were treated systemically with AlDeLuc, and the bioluminescence was monitored (FIG. 5e). […] At the completion of the diet study, animals were sacrificed, and their tumors were excised for further immunohistochemical analysis.
Generation of an Orthotopic 4T1-Luc Breast Cancer Model for Diet Studies. Female BALB/c mice (˜6 weeks old) were inoculated with 4T1-Luc cells (50 μL of 1×10^5 cells in 1:1 v/v serum-free RPMI 1640 media and Matrigel) via subcutaneous injections into the mammary fat pad. Tumor volumes were measured using the caliper method every three days. Body weight was measured daily over the course of the experiment.

ALDH1A1 = biological target: T1, ALDH1A1 (Mus musculus, UniProt P24549); experiment: Validation of ALDH-mediated activation of AlDeLuc in heterotopic breast cancer model via DEAB inhibition; assay type: in vivo, BALB/c mice; parameters: from tissue; host or cells: 4T1-Luc tumours in BALB/c mice; settings: AlDeLuc alone 0.55 mg/kg; 40 min after injection
T1 sequence (P24549 1-501): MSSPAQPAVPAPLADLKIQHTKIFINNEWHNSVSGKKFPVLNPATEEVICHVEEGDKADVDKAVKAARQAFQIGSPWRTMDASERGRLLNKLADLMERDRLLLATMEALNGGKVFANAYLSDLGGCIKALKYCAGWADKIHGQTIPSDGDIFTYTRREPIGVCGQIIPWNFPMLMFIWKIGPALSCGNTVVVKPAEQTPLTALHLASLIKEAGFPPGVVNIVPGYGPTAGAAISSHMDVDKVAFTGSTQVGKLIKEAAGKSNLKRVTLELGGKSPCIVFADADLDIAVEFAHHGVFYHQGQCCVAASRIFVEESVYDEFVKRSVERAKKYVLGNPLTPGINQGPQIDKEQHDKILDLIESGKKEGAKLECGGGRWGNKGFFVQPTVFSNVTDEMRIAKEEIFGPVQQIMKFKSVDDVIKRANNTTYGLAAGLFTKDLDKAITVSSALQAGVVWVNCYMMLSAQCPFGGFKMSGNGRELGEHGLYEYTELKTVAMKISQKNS
Method: Validation of ALDH-mediated Activation of AlDeLuc in a Heterotopic Breast Cancer Model via DEAB Inhibition. BALB/c mice bearing 4T1-Luc tumors were anesthetized using isoflurane (1-3% for maintenance; up to 5% for induction) in oxygen from a precision vaporizer. After testing to ensure animals are fully under anesthesia, each mouse was administered AlDeLuc via retro-orbital injection (0.55 mg/kg, 1:19 v/v DMSO:PBS). Images were captured using the IVIS imaging system 40 minutes after injection. Bioluminescence light was captured in open mode (no filters were applied). ROIs were drawn around each tumor and summed for each animal. The signal intensity was quantified using the Living Image Analysis Software. After two days, the same animals were anesthetized and co-administered a solution of AlDeLuc and DEAB (0.55 mg/kg and 93 mg/kg respectively, 1:19 v/v DMSO:PBS). After the allotted 40 minutes, the images were captured using the IVIS imaging system. Bioluminescence was collected in open mode (no filters were applied). ROIS were drawn around each tumor and summed for each animal. The signal intensity was quantified using the Living Image Analysis Software.

## CCN(CC)c1ccc2nc(C3=N[C@@H](C(OC)OC)CS3)sc2c1 [AlDeLuc, (S)-2-(4-(dimethoxymethyl)-4,5-dihydrothiazol-2-yl)-N,N-diethylbenzo[d]thiazol-6-amine]
[1]
  bioluminescence of treated cells: indistinguishable from blank controls
4T1-Luc tumors; 4T1-Luc tumors
  time at which tumor bioluminescence signal plateaued: 40 min
4T1-Luc tumors; 24 hours after administration
  signal at the 24-hour mark: complete clearance
ALDH1A1 activity
  total luminescent counts: 1.7±0.8×10^4
ALDH1A1
  total luminescent counts: 2.18±0.60×10^4

Reference: patent US20250282770A1, “BIOLUMINESCENT PROBES TO TRACK STEM CELLS IN VIVO” (THE BOARD OF TRUSTEES OF THE UNIVERSITY OF ILLINOIS, priority 2024, published 2025)
